Measured values published in patent publication US8076457B2, “Crystal of a cytochrome-ligand complex and methods of use” (The Scripps Research Institute, priority 2005, dated 2011).

Assays:
[1] = target: T1, full length wild-type CYP2A6 (Homo sapiens, UniProt P11509); conditions: microsomal preparations from a panel of 12 human liver microsomes, cited from earlier work
T1 construct: for full length wild-type CYP2A6 in microsomal preparations; host or cells: human liver microsomes (panel of 12)
T1 sequence (P11509 1-494): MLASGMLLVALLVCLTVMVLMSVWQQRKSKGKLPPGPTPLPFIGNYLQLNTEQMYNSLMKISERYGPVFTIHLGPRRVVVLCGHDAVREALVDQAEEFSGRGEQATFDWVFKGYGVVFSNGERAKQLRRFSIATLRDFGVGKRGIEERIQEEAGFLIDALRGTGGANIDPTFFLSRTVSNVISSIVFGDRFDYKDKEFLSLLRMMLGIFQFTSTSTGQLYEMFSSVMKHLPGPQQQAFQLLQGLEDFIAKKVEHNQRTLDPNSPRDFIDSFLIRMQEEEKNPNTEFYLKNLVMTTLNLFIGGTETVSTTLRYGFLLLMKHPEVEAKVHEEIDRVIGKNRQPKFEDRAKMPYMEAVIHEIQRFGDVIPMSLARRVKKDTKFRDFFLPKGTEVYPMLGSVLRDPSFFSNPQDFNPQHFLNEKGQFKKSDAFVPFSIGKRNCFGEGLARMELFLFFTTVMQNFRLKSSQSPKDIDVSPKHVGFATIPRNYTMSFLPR

CYP2A6dH [2] = target: T2, CYP2A6dH (Homo sapiens, UniProt P11509, Q458E); assay: binding constants by visible difference spectroscopy (low spin to high spin conversion); conditions: for spectral change on binding to the purified enzyme: spectral titration, UV-visible
T2 construct: expressing residues 29-494 of the catalytic domain without internal modifications; 4xHis (C); made in house; host or cells: Escherichia coli
T2 sequence (P11509 with tags, fused parts or gaps Q458E): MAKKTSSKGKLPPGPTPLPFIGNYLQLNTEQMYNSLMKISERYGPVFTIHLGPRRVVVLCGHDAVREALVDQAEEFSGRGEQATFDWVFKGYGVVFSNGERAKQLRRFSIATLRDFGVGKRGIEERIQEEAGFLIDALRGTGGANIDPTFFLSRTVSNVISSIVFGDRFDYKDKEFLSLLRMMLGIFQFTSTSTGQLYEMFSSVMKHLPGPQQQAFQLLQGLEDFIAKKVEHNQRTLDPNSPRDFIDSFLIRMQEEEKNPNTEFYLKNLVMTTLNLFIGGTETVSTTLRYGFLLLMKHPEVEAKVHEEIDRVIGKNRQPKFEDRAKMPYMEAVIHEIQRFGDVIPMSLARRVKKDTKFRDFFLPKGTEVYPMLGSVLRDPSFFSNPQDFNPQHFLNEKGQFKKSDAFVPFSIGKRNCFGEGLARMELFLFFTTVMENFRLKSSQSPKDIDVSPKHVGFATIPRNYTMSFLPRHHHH
Method: Purified CYP2A6dH was diluted to ˜3 μM in 50 mM KPi pH 7.4, 500 mM NaCl, 20% glycerol, 1 mM EDTA (referred to as XB) in a 1-cm path length microcuvette. […] The total concentration of methanol remained under 1%. Binding was monitored as the absorbance difference, ΔA, between the peak (˜385 nm) and trough (˜417 nm) of the difference spectrum. The apparent binding constant, Ks, and the extrapolated maximum spectral change, ΔAmax, were estimated from nonlinear least-squares regression fitting using the following equation:
[formula] where S is the total concentration of ligand and P is the total concentration of P450.

CYP2A6dH [3] = target: T2, CYP2A6dH; assay: coumarin 7-hydroxylation by purified CYP2A6dH reconstituted with P450 reductase; type: biochemical
Description: In this example, to determine catalytic properties for the purified protein, CYP2A6dH was reconstituted with E. coli-expressed purified human reductase in the absence of L-α-dilauroyl-L-α-lecithin with slight modifications to the protocol described by Tan et al. (Competitive interactions between CYP2A6 and cytochrome P450 2E1 for NADPH-cytochrome P450 oxidoreductase in the microsomal membranes produced by a baculovirus expression system. Arch. Biochem. Biophys. 342, 82-91 (1997)). 10 pmol CYP2A6dH was incubated on ice for 10 min. with 0.06 U human reductase at a ratio of 1:6, CYP2A6dH to reductase in a final volume of 10 μl. 1.2 benzopyrone at concentrations ranging from 25 μM to 2.5 mM were then added in […] aliquots, along with 430 μL of 50 mM Tris pH 7.4. The reaction mixture was allowed to equilibrate at 37° C. for 3 min. To start the reaction, 50 μl of an NADPH regeneration system (50 mM isocitrate, 50 mM MgCl2, 5 U/ml isocitrate dehydrogenase and 10 mM NADPH) was added. The reaction was allowed to proceed for 5 min., and stopped by addition of 100 μl of cold 20% trichloroacetic acid. The components were centrifuged at 13,000 rpm. 10 μl of the supernatant was removed and added to 190 μl 100 mM Tris buffer, pH 9.0. the coumarin content was quantified fluorometrically (excitation at 368 nm and emission at 453 nm).

spectral change on binding to the purified enzyme (CYP2A6dH [2])	Kd (CYP2A6dH [2]; substrate dependent conversion to high spin ferric heme protein, read-out: Dissociation constant for binding to purified CYP2A6dH)	Km (CYP2A6dH [3])	Vmax for coumarin 7-hydroxylation (CYP2A6dH [3])	Compound	Vmax of coumarin hydroxylation (mean value) [1]	Km ([1]; read-out: Km of coumarin hydroxylation (mean value))
type I spectral change	0.27 µM	0.23 ± 0.03 µM	10.83±1.38 nmols/min/nmol P450	O=c1ccc2ccccc2o1 [coumarin, 1,2-benzopyrone]	6.34 nmols/min/nmol P450	0.4 µM
type I spectral change	–	–	–	COc1c2occc2cc2ccc(=O)oc12 [methoxsalen, 8-methoxypsoralen]	–	–
